Measured values as given in the NIST ThermoML archive (doi:10.1021/je060339m).
Numbers after ± are expanded uncertainties.

Conditions: Liquid

CCCCCOC(C)=O [pentyl ethanoate]
mass density [kg/m3]
Conditions | 298.15 K | 303.15 K | 308.15 K | 313.15 K | 318.15 K | 323.15 K | 328.15 K | 333.15 K | 338.15 K | 343.15 K
100 kPa | 871.4 ± 3.3 | 866.5 ± 3.3 | 861.6 ± 3.3 | 856.7 ± 3.3 | 851.9 ± 3.3 | 847.1 ± 3.3 | 842.3 ± 3.3 | 837.8 ± 3.3 | 832.9 ± 3.3 | 828.3 ± 3.3
1000 kPa | 871.9 ± 3.4 | 867.1 ± 3.4 | 862.2 ± 3.4 | 857.4 ± 3.4 | 852.6 ± 3.4 | 847.7 ± 3.4 | 843.2 ± 3.4 | 838.7 ± 3.4 | 834 ± 3.4 | 829.3 ± 3.4
2000 kPa | 872.7 ± 3.6 | 867.9 ± 3.6 | 863.1 ± 3.6 | 858.3 ± 3.5 | 853.5 ± 3.5 | 848.7 ± 3.5 | 844.4 ± 3.5 | 839.8 ± 3.5 | 835.1 ± 3.5 | 830.4 ± 3.5
2700 kPa | 873.3 ± 3.6 | 868.5 ± 3.6 | 863.7 ± 3.6 | 858.9 ± 3.6 | 854.2 ± 3.6 | 849.3 ± 3.6 | 845.2 ± 3.6 | 840.5 ± 3.6 | 835.8 ± 3.6 | 831.2 ± 3.6
3000 kPa | 873.5 ± 3.7 | 868.7 ± 3.7 | 863.9 ± 3.7 | 859.2 ± 3.7 | 854.4 ± 3.7 | 849.6 ± 3.7 | 845.5 ± 3.7 | 840.8 ± 3.7 | 836.1 ± 3.7 | 831.5 ± 3.7
5000 kPa | 875.3 ± 3.9 | 870.5 ± 3.9 | 865.8 ± 3.9 | 861 ± 3.9 | 856.4 ± 3.9 | 851.7 ± 3.9 | 847.1 ± 3.9 | 842.7 ± 3.9 | 838.1 ± 3.9 | 833.5 ± 3.9
10000 kPa | 879.1 ± 4.5 | 874.4 ± 4.5 | 869.8 ± 4.5 | 865.2 ± 4.5 | 860.7 ± 4.5 | 856.1 ± 4.5 | 851.6 ± 4.5 | 847.4 ± 4.5 | 842.9 ± 4.5 | 838.5 ± 4.5
15000 kPa | 882.7 ± 5.1 | 878.1 ± 5.1 | 873.6 ± 5.1 | 869 ± 5.1 | 864.7 ± 5.1 | 860.2 ± 5.1 | 855.9 ± 5.1 | 851.8 ± 5.1 | 847.5 ± 5.1 | 843.2 ± 5.1
20000 kPa | 886.2 ± 5.7 | 881.6 ± 5.7 | 877.3 ± 5.7 | 872.8 ± 5.7 | 868.5 ± 5.7 | 864.2 ± 5.7 | 860 ± 5.7 | 856 ± 5.7 | 851.9 ± 5.7 | 847.7 ± 5.7
25000 kPa | 889.6 ± 6.3 | 885.1 ± 6.3 | 880.8 ± 6.3 | 876.4 ± 6.3 | 872.3 ± 6.3 | 868.1 ± 6.3 | 864.1 ± 6.3 | 860.1 ± 6.3 | 856.2 ± 6.3 | –
30000 kPa | 893.6 ± 6.9 | 889.4 ± 6.9 | 885.2 ± 6.9 | 880.9 ± 6.9 | 876.9 ± 6.9 | 872.8 ± 6.9 | 869 ± 6.9 | 865.1 ± 6.9 | 861.3 ± 6.9 | –
35000 kPa | 897.9 ± 7.5 | 893.8 ± 7.5 | 889.7 ± 7.5 | 885.5 ± 7.5 | 881.7 ± 7.5 | 877.6 ± 7.5 | 874 ± 7.5 | 870.2 ± 7.5 | 866.5 ± 7.5 | –
